# Patent publication US20040265846A1, “Adrenergic receptors” (DUKE UNIVERSITY, priority 2002, published 2004)
# Where a chain is given by its changes, count along the chain named.
# Legend:
# [1] = molecular target: T1, human α1aAR SNP V311I (Homo sapiens, UniProt P35348, V311I); assay: Competition binding vs [125I]HEAT, SNP V311I; conditions: high expressing clone
# T1 construct: expressed in transfected cells
# T1 sequence (P35348 1-466 V311I): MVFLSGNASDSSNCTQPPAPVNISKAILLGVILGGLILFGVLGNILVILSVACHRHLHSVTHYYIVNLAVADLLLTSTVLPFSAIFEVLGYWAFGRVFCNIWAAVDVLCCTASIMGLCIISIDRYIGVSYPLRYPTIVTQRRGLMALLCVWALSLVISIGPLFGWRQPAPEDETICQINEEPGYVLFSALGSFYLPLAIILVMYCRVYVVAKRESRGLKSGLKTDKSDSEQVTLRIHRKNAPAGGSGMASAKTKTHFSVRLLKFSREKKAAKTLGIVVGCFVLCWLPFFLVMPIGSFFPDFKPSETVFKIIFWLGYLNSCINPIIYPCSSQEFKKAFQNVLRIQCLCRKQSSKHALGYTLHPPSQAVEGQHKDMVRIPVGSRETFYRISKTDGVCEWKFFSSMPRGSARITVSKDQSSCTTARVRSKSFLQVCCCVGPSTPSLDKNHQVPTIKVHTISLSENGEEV
# [2] = molecular target: T2, human α1aAR SNP G247R (Homo sapiens, UniProt P35348, G247R); assay: NE-stimulated inositol phosphate (IP) production, SNP G247R; assay type: cell-based; conditions: low-expression stable clones
# T2 construct: expressed in transfected cells
# T2 sequence (P35348 1-466 G247R): T1 sequence (P35348 1-466 V311I) with G247R, I311V
# [3] = molecular target: T1, human α1aAR SNP V311I; assay: NE-stimulated inositol phosphate (IP) production, SNP V311I; assay type: cell-based
# [4] = molecular target: T3, human α1aAR SNP I200S (Homo sapiens, UniProt P35348, I200S); assay: Competition binding vs [125I]HEAT, SNP I200S; conditions: high expressing clone
# T3 construct: expressed in transfected cells; host or cells: rat-1 fibroblasts (membranes)
# T3 sequence (P35348 1-466 I200S): T1 sequence (P35348 1-466 V311I) with I200S, I311V
smiles,measurement,setting,value
COc1ccccc1N1CCN(CCCNc2c(C)c(=O)n(C)c(=O)n2C)CC1 [5-methylurapidil],higher affinity vs WT,[1],3 fold
"NC[C@H](O)c1ccc(O)c(O)c1 [NE, (−)-norepinephrine]",maximum IP production (maximum activity) vs WT,[2],significantly higher maximum activity
same,Ki increase vs WT (decrease in receptor affinity),[1],~3 fold
same,decrease in potency of NE-stimulated IP formation compared with WT,[3]; high-expression stable clone,2.4 fold
same,EC50 for NE vs WT,[3]; low-expression stable clone,significantly increased EC50
same,EC50 for NE vs WT,[3]; transiently transfected rat-1 fibroblasts,significantly increased EC50
Cc1ccc(N(CC2=NCCN2)c2cccc(O)c2)cc1 [phentolamine],Ki increase vs WT (decreased binding affinity),[4],~3 fold
CNC[C@H](O)c1cccc(O)c1 [phenylephrine],Ki increase vs WT (decrease in receptor affinity),[1],~3 fold
